PMC8159961, “Exploring protein hotspots by optimized fragment pharmacophores” (Nature Communications, 2021)
Like-named read-outs stand apart in the source and are kept apart here.

Assays:
[1] = target: T1, human 5-HT1A receptor (Homo sapiens, UniProt P08908); assay: GPCR radioligand binding assay, [3H]-8-OH-DPAT displacement, HEK293 membranes
T1 construct: expressed in transfected cells
T1 sequence (P08908 1-422): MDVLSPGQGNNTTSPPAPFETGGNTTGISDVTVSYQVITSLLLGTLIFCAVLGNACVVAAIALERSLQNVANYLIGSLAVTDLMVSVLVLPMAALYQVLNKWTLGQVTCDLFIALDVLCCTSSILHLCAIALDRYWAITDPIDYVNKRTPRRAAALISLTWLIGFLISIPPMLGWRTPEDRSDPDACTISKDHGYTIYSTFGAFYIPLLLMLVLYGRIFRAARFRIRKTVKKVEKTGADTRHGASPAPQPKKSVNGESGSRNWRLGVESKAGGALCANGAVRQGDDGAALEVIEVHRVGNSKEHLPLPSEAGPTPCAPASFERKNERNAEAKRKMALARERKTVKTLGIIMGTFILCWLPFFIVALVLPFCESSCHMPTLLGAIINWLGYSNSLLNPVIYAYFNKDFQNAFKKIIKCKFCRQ

[2] = target: T2, human 5-HT6 receptor (Homo sapiens, UniProt P50406); assay: GPCR radioligand binding assay, [3H]-LSD displacement, HEK293 membranes
T2 construct: expressed in transfected cells

[3] = target: T3, human 5-HT7b receptor (Homo sapiens, UniProt P34969); assay: GPCR radioligand binding assay, [3H]-5-CT displacement, HEK293 membranes
T3 construct: expressed in transfected cells

[4] = target: T4, bovine factor Xa (Bos taurus, UniProt P00743); assay: Protease inhibitory assay, chromogenic substrate S-2222; assay type: biochemical
T4 construct: bovine factor Xa, Chromogenix, 2 nkat/mL; purchased Chromogenix

[5] = target: T5, human thrombin (Homo sapiens, UniProt P00734); assay: Protease inhibitory assay, chromogenic substrate S-2238; assay type: biochemical; settings: plate layout, label = plate position; Cheng-Prusoff, Km 2.6 µM; read-out: Thrombin Ki
T5 construct: human thrombin; purchased Sigma-Aldrich

[6] = 10 µM, read-out: 5-HT1A % Inhibition by plate position
[7] = 5-HT1A, average of exp_1 and exp_2, read-out: %inh 5-HT1A average
[8] = 5-HT1A, average, values below 0 and above 100% were set as 0 and 100, read-out: %inh 5-HT1A corrected*
[9] = 5-HT1A, replicate exp_1, read-out: %inh 5-HT1A exp_1
[10] = 5-HT1A, replicate exp_2, read-out: %inh 5-HT1A exp_2
[11] = 10 µM, read-out: 5-HT6 % Inhibition by plate position
[12] = 5-HT6, average of exp_1 and exp_2, read-out: %inh 5-HT6 average
[13] = 5-HT6, average, values below 0 and above 100% were set as 0 and 100, read-out: %inh 5-HT6 corrected*
[14] = 5-HT6, replicate exp_1, read-out: %inh 5-HT6 exp_1
[15] = 5-HT6, replicate exp_2, read-out: %inh 5-HT6 exp_2
[16] = 10 µM, read-out: 5-HT7 % Inhibition by plate position
[17] = 5-HT7, average of exp_1 and exp_2, read-out: %inh 5-HT7 average
[18] = 5-HT7, average, values below 0 and above 100% were set as 0 and 100, read-out: %inh 5-HT7 corrected*
[19] = 5-HT7, replicate exp_1, read-out: %inh 5-HT7 exp_1
[20] = 5-HT7, replicate exp_2, read-out: %inh 5-HT7 exp_2
[21] = plate layout, label = plate position, Cheng-Prusoff, Km 164 µM, read-out: Factor Xa Ki

T3 sequence (P34969 1-432): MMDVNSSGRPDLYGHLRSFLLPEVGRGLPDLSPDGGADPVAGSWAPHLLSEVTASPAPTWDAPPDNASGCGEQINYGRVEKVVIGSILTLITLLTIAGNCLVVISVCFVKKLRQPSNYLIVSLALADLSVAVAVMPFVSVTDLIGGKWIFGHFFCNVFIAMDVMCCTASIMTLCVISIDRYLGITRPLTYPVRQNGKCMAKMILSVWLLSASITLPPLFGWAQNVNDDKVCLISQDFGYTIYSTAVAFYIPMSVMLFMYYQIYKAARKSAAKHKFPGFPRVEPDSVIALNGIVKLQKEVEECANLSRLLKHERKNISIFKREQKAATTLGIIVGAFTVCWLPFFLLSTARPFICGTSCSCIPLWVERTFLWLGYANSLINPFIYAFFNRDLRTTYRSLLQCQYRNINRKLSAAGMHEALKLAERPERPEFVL
T2 sequence (P50406 whole entry): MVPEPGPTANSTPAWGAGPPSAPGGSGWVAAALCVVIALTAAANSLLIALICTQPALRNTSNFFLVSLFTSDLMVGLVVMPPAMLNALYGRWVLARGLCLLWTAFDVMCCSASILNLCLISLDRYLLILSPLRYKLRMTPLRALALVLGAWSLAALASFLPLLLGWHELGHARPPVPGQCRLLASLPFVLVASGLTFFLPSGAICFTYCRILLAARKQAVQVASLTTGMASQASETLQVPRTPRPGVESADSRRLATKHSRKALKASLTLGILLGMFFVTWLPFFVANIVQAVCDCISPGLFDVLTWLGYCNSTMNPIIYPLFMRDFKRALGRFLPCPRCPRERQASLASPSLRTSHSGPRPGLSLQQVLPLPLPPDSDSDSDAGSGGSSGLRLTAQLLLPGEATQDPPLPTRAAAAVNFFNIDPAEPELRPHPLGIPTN
T4 sequence (P00743 234-492 limits assumed): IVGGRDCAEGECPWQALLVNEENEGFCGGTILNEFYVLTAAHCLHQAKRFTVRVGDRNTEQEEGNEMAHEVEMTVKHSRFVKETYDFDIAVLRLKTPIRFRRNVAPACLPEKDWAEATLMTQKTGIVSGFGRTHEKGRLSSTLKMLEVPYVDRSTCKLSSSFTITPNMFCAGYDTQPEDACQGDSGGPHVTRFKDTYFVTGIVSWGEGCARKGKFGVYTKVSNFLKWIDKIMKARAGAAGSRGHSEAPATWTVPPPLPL
T4 sequence (P00743 41-180 partner limits assumed): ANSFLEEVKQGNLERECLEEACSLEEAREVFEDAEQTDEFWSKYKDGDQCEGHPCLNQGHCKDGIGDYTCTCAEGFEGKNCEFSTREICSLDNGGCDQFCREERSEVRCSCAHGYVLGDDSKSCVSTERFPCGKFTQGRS

SMILES	inhibition at 10 µM [1, 6]	inhibition at 10 µM [1, 7]	inhibition at 10 µM [1, 8]	inhibition at 10 µM [1, 9]	inhibition at 10 µM [1, 10]	inhibition at 10 µM [2, 11]	inhibition at 10 µM [2, 12]	inhibition at 10 µM [2, 13]	inhibition at 10 µM [2, 14]	inhibition at 10 µM [2, 15]	inhibition at 10 µM [3, 16]	inhibition at 10 µM [3, 17]	inhibition at 10 µM [3, 18]	inhibition at 10 µM [3, 19]	inhibition at 10 µM [3, 20]	Ki [4, 21]	Ki [5]	other results
Cn1c(N)nc2ccccc21 [A6]	0%	-7%	0%	-18%	3%	25%	25%	25%	22%	29%	0%	-10%	0%	-3%	-18%	277 µM	–	–
Oc1ccccc1N1CCCCC1 [A12]	0%	-10%	0%	3.37%	-23%	55%	55%	55%	69%	42%	0%	-0.0781%	0%	-4.73%	4.58%	611 µM	–	–
COc1ccccc1CC1CCNCC1 [B12]	–	–	–	–	–	–	–	–	–	–	–	–	–	–	–	–	–	inhibition at 10 µM ([1]; read-out: 5-HT1A % Inhibition by plate position): 50%; inhibition at 10 µM ([1]; read-out: %inh 5-HT1A average): 50%; inhibition at 10 µM ([1]; read-out: %inh 5-HT1A corrected*): 50%; inhibition at 10 µM ([1]; read-out: %inh 5-HT1A exp_1): 52%; inhibition at 10 µM ([1]; read-out: %inh 5-HT1A exp_2): 48%; inhibition at 10 µM ([2]; read-out: 5-HT6 % Inhibition by plate position): 76%; inhibition at 10 µM ([2]; read-out: %inh 5-HT6 average): 76%; inhibition at 10 µM ([2]; read-out: %inh 5-HT6 corrected*): 76%; inhibition at 10 µM ([2]; read-out: %inh 5-HT6 exp_1): 84%; inhibition at 10 µM ([2]; read-out: %inh 5-HT6 exp_2): 68%; inhibition at 10 µM ([3]; read-out: 5-HT7 % Inhibition by plate position): 54%; inhibition at 10 µM ([3]; read-out: %inh 5-HT7 average): 54%; inhibition at 10 µM ([3]; read-out: %inh 5-HT7 corrected*): 54%; inhibition at 10 µM ([3]; read-out: %inh 5-HT7 exp_1): 45%; inhibition at 10 µM ([3]; read-out: %inh 5-HT7 exp_2): 63%; Ki [4]: 401 µM
Nc1nnc(-c2cccs2)[nH]1 [D3]	0.863%	0.863%	0.863%	1.73%	0%	52%	52%	52%	52%	53%	0%	-1.67%	0%	1.55%	-5%	–	181 µM	–
c1ccc(Nc2nncs2)cc1 [D8]	0%	-2.41%	0%	-10%	5.56%	1.55%	1.55%	1.55%	9%	-6%	0%	-12%	0%	-3.33%	-21%	733 µM	–	–
O=C(O)C1CCN(c2ncccn2)CC1 [E9]	3%	3%	3%	11%	-4.35%	29%	29%	29%	32%	26%	0%	-8.55%	0%	3.77%	-21%	–	76 µM	–
